In patent US9120771B2, “Azetidine derivative and antidepressant composition including the same” (KOREA INSTITUTE OF SCIENCE AND TECHNOLOGY, priority 2011, dated 2015):
Like-named read-outs stand apart in the source and are kept apart here.

Assays:
[1] = molecular target: T1, human norepinephrine transporter (Homo sapiens (Human), UniProt P23975); experiment: hNET reuptake assay (HEK-hNET, FDSS6000); type: cell-based; details: HEK-hNET cells; Table 3
[2] = molecular target: T1, human norepinephrine transporter; experiment: hNET binding assay ([3H]Nisoxetine); details: for inhibition at 10 µM: read-out: hNET binding assay %-inhibition (10 uM)
Description: NE transporter binding assay for evaluating binding of the compound to the norepinephrine transporter was carried out using human recombinant norepinephrine transporter membrane (PerkinElmer Life and Analytical Sciences, USA) expressed in MDCK cells and radioisotope [^3H]Nisoxetine (PerkinElmer).
That is, the test drug, 6 nM [^3H]Nisoxetine, norepinephrine transporter membrane (11 ug/well), 120 mM NaCl and 50 mM Tris-HCl buffer (pH 7.4) containing 5 mM KCl were added to obtain a reaction mixture with a final volume of 0.25 ml. After incubation for 60 minutes at 4° C., the mixture was quickly passed through a Filtermat A glass fiber filter pre-soaked with 0.5% (w/v) PEI (polyethyleneimine) using Inotech Harvester (Inotech) to terminate the reaction. After washing with cold washing buffer (50 mM Tris-HCl, pH 7.4, 0.9% NaCl) solution, the filter was covered with MeltiLex and sealed in a sample bag. After drying in an oven, radioactivity was counted using MicroBeta Plus (Wallac).
Non-specific binding was measured in the presence of 1 uM desipramine. The IC50 value of the test drug was calculated from non-linear regression analysis (GraphPad Prism Program, San Diego, USA) of each %-inhibition value obtained from the drug with concentrations of 7th and 8th steps.

[3] = molecular target: T2, human serotonin transporter (Homo sapiens (Human), UniProt P31645); experiment: hSERT binding assay ([3H]Imipramine); details: for inhibition at 10 µM: read-out: hSERT binding assay %-inhibition (10 uM);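 for all read-outs here: displacement of radiolabeled imipramine from the transporter, incubated 30 min at 27 °C in Tris-HCl pH 7.4 with NaCl and KCl, bound radioactivity counted after filtration, nonspecific binding defined with 200 uM imipramine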
T2 sequence (P31645 whole entry): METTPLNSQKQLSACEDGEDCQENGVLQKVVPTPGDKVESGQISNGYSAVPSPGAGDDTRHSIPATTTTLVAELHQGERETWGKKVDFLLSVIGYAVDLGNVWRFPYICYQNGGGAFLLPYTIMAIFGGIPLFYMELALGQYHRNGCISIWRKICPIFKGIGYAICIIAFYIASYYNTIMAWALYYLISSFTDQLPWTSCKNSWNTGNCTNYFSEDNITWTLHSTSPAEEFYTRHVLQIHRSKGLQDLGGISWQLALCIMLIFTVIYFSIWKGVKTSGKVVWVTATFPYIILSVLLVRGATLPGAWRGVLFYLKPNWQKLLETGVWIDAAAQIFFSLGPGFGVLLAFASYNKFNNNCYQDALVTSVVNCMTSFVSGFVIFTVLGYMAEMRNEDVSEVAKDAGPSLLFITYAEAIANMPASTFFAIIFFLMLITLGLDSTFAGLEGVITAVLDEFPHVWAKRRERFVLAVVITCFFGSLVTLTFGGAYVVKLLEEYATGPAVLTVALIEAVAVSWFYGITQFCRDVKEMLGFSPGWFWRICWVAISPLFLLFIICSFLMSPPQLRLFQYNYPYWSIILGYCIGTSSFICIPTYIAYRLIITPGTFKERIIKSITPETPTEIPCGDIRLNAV

[4] = molecular target: T3, human dopamine transporter (Homo sapiens (Human), UniProt Q01959); experiment: hDAT binding assay ([3H]WIN35,428); details: for IC50: membrane from CHO-K1 cells, 8 nM [3H]WIN35,428; for inhibition at 10 µM: read-out: hDAT binding assay %-inhibition (10 uM);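 for all read-outs here: displacement of the radioligand from the transporter membranes, incubated 120 min at 4 °C in Tris-HCl buffer with NaCl, pH 7.4, measured by filter-bound radioactivity counting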
T3 sequence (Q01959 whole entry): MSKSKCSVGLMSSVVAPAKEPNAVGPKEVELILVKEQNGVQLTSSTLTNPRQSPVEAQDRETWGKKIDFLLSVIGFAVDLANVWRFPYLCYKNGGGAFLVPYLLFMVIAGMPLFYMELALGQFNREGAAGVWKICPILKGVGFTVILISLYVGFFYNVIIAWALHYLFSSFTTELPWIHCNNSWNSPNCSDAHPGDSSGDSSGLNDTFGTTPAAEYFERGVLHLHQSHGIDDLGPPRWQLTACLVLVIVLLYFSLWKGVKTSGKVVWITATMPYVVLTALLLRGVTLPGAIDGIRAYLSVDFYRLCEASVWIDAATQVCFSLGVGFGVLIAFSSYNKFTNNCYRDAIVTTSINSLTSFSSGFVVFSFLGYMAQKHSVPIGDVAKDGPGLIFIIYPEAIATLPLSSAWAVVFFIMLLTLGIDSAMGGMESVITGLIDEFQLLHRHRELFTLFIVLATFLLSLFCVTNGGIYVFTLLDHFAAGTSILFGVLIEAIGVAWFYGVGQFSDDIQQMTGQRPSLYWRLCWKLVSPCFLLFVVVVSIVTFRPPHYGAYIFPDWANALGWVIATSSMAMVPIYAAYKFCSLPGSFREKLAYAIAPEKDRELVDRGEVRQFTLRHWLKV

[5] = molecular target: T2, human serotonin transporter; experiment: hSERT reuptake assay (HEK-hSERT, FDSS6000); type: cell-based; details: HEK-hSERT cells; Table 3
[6] = molecular target: T3, human dopamine transporter; experiment: hDAT reuptake assay (HEK-hDAT, FDSS6000); type: cell-based; details: HEK-hDAT cells; Table 3
[7] = 10 uM, membrane from MDCK cells
[8] = membrane from MDCK cells, 6 nM [3H]Nisoxetine
[9] = 10 uM, membrane from HEK293 cells
[10] = membrane from HEK293 cells, 2 nM [3H]Imipramine

T1 sequence (P23975 whole entry): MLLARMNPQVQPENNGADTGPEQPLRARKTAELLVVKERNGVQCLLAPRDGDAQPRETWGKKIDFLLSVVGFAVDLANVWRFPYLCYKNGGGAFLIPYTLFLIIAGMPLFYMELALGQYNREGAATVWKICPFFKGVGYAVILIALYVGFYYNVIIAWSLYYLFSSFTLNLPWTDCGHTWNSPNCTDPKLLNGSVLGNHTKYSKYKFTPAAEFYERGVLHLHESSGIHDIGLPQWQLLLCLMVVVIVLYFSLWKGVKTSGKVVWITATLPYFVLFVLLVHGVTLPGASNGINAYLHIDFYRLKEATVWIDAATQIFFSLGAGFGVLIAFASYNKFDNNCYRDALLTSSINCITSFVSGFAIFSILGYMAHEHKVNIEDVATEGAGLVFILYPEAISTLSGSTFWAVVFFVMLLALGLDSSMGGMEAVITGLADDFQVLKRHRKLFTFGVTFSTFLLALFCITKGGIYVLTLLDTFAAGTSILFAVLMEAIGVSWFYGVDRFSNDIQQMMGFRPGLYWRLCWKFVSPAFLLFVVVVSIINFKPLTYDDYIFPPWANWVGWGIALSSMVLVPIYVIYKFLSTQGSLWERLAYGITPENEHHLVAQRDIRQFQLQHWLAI

Compound	melting point	IC50 [1]	inhibition at 10 µM [2, 7]	IC50 [2, 8]	inhibition at 10 µM [3, 9]	IC50 [3, 10]	IC50 [4]	inhibition at 10 µM [4]	IC50 [5]	IC50 [6]	IC50 [3]	inhibition at 10 µM [3]	IC50 [2]	inhibition at 10 µM [2]
Cl.Clc1ccc(C(OCc2ccccc2)C2CNC2)cc1 (centres unmarked) [KHG26769, 3-((benzyloxy)(4-chlorophenyl)methyl)azetidine hydrochloride]	184 °C	500 nM	94%	1340 nM	100%	21.6 nM	290 nM	84%	1500 nM	800 nM				
Cl.Clc1ccc(C(OCc2ccccc2)C2CNC2)cc1Cl (centres unmarked) [KHG26770, 3-((benzyloxy)(3,4-dichlorophenyl)methyl)azetidine hydrochloride]	128 °C	700 nM	99%	93.1 nM	98%	7.81 nM	23.2 nM	96%	900 nM	800 nM				
Cc1ccccc1OC(c1ccc(Cl)c(Cl)c1)C1CNC1.Cl (centres unmarked) [KHG26774, 3-((3,4-dichlorophenyl)(ortho-tolyloxy)methyl)azetidine hydrochloride]	194 °C	2200 nM	100%	25.8 nM			119 nM	96%	800 nM	300 nM	11.6 nM	100%		
Cc1cccc(OC(c2ccc(Cl)c(Cl)c2)C2CNC2)c1.Cl (centres unmarked) [KHG26775, 3-((3,4-dichlorophenyl)(meta-tolyloxy)methyl)azetidine hydrochloride]	200 °C	600 nM	100%	28.4 nM	99%	19.8 nM	61.8 nM	99%	600 nM	400 nM				
Cc1ccc(OC(c2ccc(Cl)c(Cl)c2)C2CNC2)cc1.Cl (centres unmarked) [KHG26776, 3-((3,4-dichlorophenyl)(para-tolyloxy)methyl)azetidine hydrochloride]	193 °C	500 nM			100%	5.67 nM	168 nM	95%	700 nM	300 nM			27.1 nM	100%
